In this test the target is T1, LPAAT-β (Homo sapiens, UniProt O15120).
T1 construct: the full-length human LPAAT-β cDNA was amplified by PCR; poly-histidine tag (from pFastBac HTc vector) (N); made in house; host or cells: Sf9 insect cells (baculovirus); membrane fraction used
T1 sequence (O15120 24-278): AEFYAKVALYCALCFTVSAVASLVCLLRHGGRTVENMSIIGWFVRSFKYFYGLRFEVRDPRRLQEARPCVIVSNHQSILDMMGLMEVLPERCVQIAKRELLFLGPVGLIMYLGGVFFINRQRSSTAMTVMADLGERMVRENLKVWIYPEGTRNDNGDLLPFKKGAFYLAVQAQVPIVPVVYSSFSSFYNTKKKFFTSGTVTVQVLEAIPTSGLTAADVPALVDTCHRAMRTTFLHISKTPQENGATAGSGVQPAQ
Put plainly: LPAAT-β cell-free assay (colorimetric primary screen, radiometric/fluorescent TLC secondary assay). The settings on record: Sf9 cell membrane overexpressing LPAAT-β. It is filed as biochemical. An excerpt:
A. Production of Recombinant LPAAT-β for Assays
For the construction of Baculovirus expression vectors, the full-length human LPAAT-β cDNA was amplified by PCR from the DNA template pCE9.LPAAT-β (West et al., DNA Cell Biol. 16:691-701 (1997)) using the primers 5′-[…] […] […] […]-3′ (olpb1F; SEQ ID NO:1) and 5′-[…] […] […]-3′ (olpb1R; SEQ ID NO:2). The ˜870 bp fragment generated was reamplified by PCR using the primers 5′[…] […] […] […] ATC-3′ (olpb2F; SEQ ID NO:3) and 5′-[…] […] […]-3′ (olpb1R; SEQ ID NO:2). The ˜890 bp fragment generated was then cleaved with Sal I and Xba I for insertion into pFastBac™ HTc vector (Life Technologies, Gaithersberg, Md.) between the Sal I and Xba I sites for the generation of the plasmid pFB.LPAAT-β. This plasmid was then transformed into E. coli DH10Bac™ (Life Technologies, Gaithersberg, Md.) for the generation of recombinant Bacmid DNA for transfection in HighFive (Invitrogen, San Diego, Calif.) or SF9 insect cells for the production of recombinant Baculovirus stocks using the protocol described in the Bac-to-Bac® Baculovirus Expression System (Life Technologies, Gaithersberg, Md.), a eukaryotic expression system for generating recombinant baculovirus through site-specific transposition in E. coli. Viral stocks harvested from the transfected cells can then be used to infect fresh insect cells for the subsequence expression of LPAAT-β fusion protein with a poly-histidine tag and a myc-epitope near its N-terminus. The membrane fraction from these Sf9 cells would be the source of LPAAT enzyme.
B. Preparation of Cell Membranes from Sf9 Cells
For the preparation of membranes from Sf9 Cells, all steps are performed on ice or at 4° C. Sf9 cell pellets (˜10^8 cells) were thawed and resuspended in 1-2 ml of buffer A (20 mM Hepes, pH 7.5, 1 mM DTT, 1 mM EDTA, 20% w/v glycerol, 1 mM Benzamidine, 1 μg/ml soybean trypsin inhibitor (SBTI), 1 μg/ml pepstatin A) w/o DTT but with 1 mM Pefabloc. The cells were lysed by sonication using a Branson Sonifier at output=2, duty cycle=2, 10 pulses each at 10s. with the tip of small sonicator probe submerged but not touching the walls. DTT was then added to 1 mM from a 1 M stock. The samples were centrifuged at 1500 rpm for 5 min. The low speed supernatant was saved and centrifuged (TLA 100.3 rotor, polycarbonate tubes, 2 ml/tube or 1.5 ml/tube minimum) at 100000×g for 1 hr. The high speed pellet was resuspend in Buffer A with a probe sonicator (10 pulses @ output #2 and duty cycle 20%) as a source of LPAAT enzyme.
C. Assay of LPAAT-β Activity
LPAAT-β catalyzes the transfer of an acyl group from a donor such as acyl-CoA to LPA. The transfer of the acyl group from acyl-CoA to LPA leads to the release of free CoA, which can be reacted with the thiol reagent, 5,5′-dithiobis(2-nitrobenzoic acid) (DTNB). The reaction between DTNB and the free sulfhydryl group from CoA generates a yellow-colored product, 3-carboxylato-4-nitrothiophenolate (CNP), that absorbs at 413 nm. LPAAT-β derived from Sf9 cell membrane overexpressing LPAAT-β were resuspended in HEPES saline buffer (20 mM HEPES pH 7.5, 150 mM NaCl), 1 mg/ml BSA and 72 μl aliquots were distributed into 96-well microtiter plates. 8 μl of compound of interest at 200 μM dissolved in 100% DMSO was added into each well. 20 μl of 1 mM 18:1-CoA and 1 mM sn-1-18:1 lysoPA was then added to each well to initiate the reaction and allowed to run at room temperature for 25 min. 100 μl of 1 mM DTNB in 100% ethanol was then added to each well to quench the reaction and for color development. The absorbance at 405 nm, measured using a spectrophotometer plate reader, is proportional to the activity of LPAAT-β in the sample. This colorimetric assay was used for the high throughput screening of LPAAT inhibitors.

In general, IC50 refers to the point on the concentration scale where inhibition reaches its midpoint. A higher IC50 goes with weaker potency in that assay.

Each structure is given as a SMILES string.

Take `Nc1nc(Nc2cccc(Cl)c2)nc(-c2cc(Cl)ccc2Cl)n1` [Example 90, N-(3-chlorophenyl)-6-(2,5-dichlorophenyl)-[1,3,5]triazine-2,4-diamine]: the half-maximal inhibitory concentration (IC50) came out at 4800 nM. This lies in the single-digit micromolar range. On to `Cc1ccc(Cl)c(-c2nc(N)nc(Nc3ccc(Cl)cc3)n2)c1` [Example 83, 6-(2-chloro-5-methyl-phenyl)-N-(4-chloro-phenyl)-[1,3,5]triazine-2,4-diamine], for which the IC50 was determined as 180 nM. For `COc1ccc(Cl)cc1-c1nc(N)nc(Nc2ccc(Cl)cc2)n1` [Example 1, 6-(5-Chloro-2-methoxyphenyl)-N-(4-chlorophenyl)-[1,3,5]triazine-2,4-diamine], it took 57 nM to reach half-maximal inhibition (IC50). This IC50 is about 3.2-fold lower than that of the compound before.

`CNC(=O)c1cc(Nc2nc(N)nc(-c3cc(Cl)ccc3C)n2)ccc1Cl` [Example 43, 5-[4-amino-6-(5-chloro-2-methylphenyl)-[1,3,5]triazin-2-ylamino]-2-chloro-N-methylbenzamide] came in with an IC50 of 400 nM.

On to `Cc1ccc(C)c(-c2nc(N)nc(Nc3ccc(Cl)cc3)n2)c1` [Example 14, N-(4-chlorophenyl)-6-(2,5-dimethylphenyl)-[1,3,5]triazine-2,4-diamine], for which the IC50 came to 250 nM. Compared with the last compound, the IC50 is about 1.6-fold lower. Take `Cc1ccc(Br)c(-c2nc(N)nc(Nc3ccc(Cl)cc3)n2)c1` [Example 86, 6-(2-bromo-5-methyl-phenyl)-N-(4-chloro-phenyl)-[1,3,5]triazine-2,4-diamine]: the IC50 is 450 nM. The compound `Cc1ccc(Cl)cc1-c1nc(N)nc(Nc2ccc(CC(=O)O)cc2)n1` [Example 60, {4-[4-Amino-6-(5-chloro-2-methyl-phenyl)-[1,3,5]triazin-2-ylamino]-phenyl}-acetic acid] registered an IC50 of 1300 nM.

With `Nc1nc(Nc2ccc(Cl)cc2)nc(-c2cc(Cl)ccc2F)n1` [Example 85, 6-(5-Chloro-2-fluoro-phenyl)-N-(4-chloro-phenyl)-[1,3,5]triazine-2,4-diamine], it took 70 nM to reach half-maximal inhibition (IC50).

The compound `Cc1nc(Nc2ccc3cn[nH]c3c2)nc(-c2cc(Cl)ccc2C)n1` [Example 22, [4-(5-Chloro-2-methyl-phenyl)-6-methyl-[1,3,5]triazin-2-yl]-(1H-indazol-6-yl)-amine] returned an IC50 of 13 nM. As for `Cc1ccc(Cl)cc1-c1nc(N)nc(Nc2ccc(CCO)cc2)n1` [Example 57, 2-{4-[4-Amino-6-(5-chloro-2-methyl-phenyl)-[1,3,5]triazin-2-ylamino]-phenyl}-ethanol], the IC50 came out at 140 nM. `Cc1ccc(Cl)cc1-c1nc(C#N)nc(Nc2ccc(Br)cc2)n1` [Example 28] came in with a 50% inhibitory concentration (IC50) of 420 nM. As for `Cc1ccc(Cl)cc1-c1nc(N)nc(Nc2ccc(N=[N+]=[N-])cc2)n1` [Example 36, 6-(5-Chloro-2-methyl-phenyl)-N-(4-azido-phenyl)-amino-[1,3,5]triazine-2,4-diamine], the concentration for half-maximal inhibition (IC50) was 880 nM. `Cc1ccc(Cl)cc1-c1nc(N)nc(Nc2ccc(C=O)cc2)n1` [Example 87, 4-[4-Amino-6-(5-chloro-2-methyl-phenyl)-[1,3,5]triazin-2-ylamino]-benzaldehyde] came in with an IC50 of 110 nM. The compound `COCc1ccc(Nc2nc(N)nc(-c3cc(Cl)ccc3C)n2)cc1` [Example 78, 6-(5-Chloro-2-methyl-phenyl)-N-(4-methoxy-methyl-phenyl)-[1,3,5]triazine-2,4-diamine] registered an IC50 of 640 nM. As for `CNc1cc(Nc2nc(N)nc(-c3cc(Cl)ccc3C)n2)ccc1Cl` [Example 34, N-(4-Chloro-3-methylamino-phenyl)-6-(5-chloro-2-methyl-phenyl)-[1,3,5]triazine-2,4-diamine], 160 nM corresponded to half-maximal inhibition (IC50). Turning to `C#Cc1ccc(Nc2nc(N)nc(-c3cc(Cl)ccc3C)n2)cc1` [Example 42, 6-(5-Chloro-2-methyl-phenyl)-N-(4-ethynyl-phenyl)-[1,3,5]triazine-2,4-diamine], the IC50 came to 280 nM. On to `Nc1nc(Nc2ccc3c(c2)OCO3)nc(-c2cc(Cl)ccc2Cl)n1` [Example 82, N-Benzo[1.3]dioxol-5-yl-6-(2,5-dichloro-phenyl)-[1,3,5]triazine-2,4-diamine], for which inhibition was half-maximal at 300 nM (IC50). The IC50 values of the last two compounds are within 1.5-fold of each other. `COc1ccc(Cl)cc1-c1nc(N)nc(Nc2ccc(C)cc2)n1` [Example 79, 6-(5-Chloro-2-methoxy-phenyl)-N-p-tolyl-[1,3,5]triazine-2,4-diamine] registered an IC50 of 230 nM. In turn, `Nc1nc(Nc2ccc(Cl)cc2)nc(-c2cc(Br)ccc2Cl)n1` [Example 45, 6-(5-Bromo-2-chloro-phenyl)-N-(4-chloro-phenyl)-[1,3,5]triazine-2,4-diamine] showed a half-inhibitory concentration (IC50) of 40 nM. `CCc1cccc(Nc2nc(N)nc(-c3cc(Cl)ccc3C)n2)c1` [Example 66, 6-(5-Chloro-2-methyl-phenyl)-N-(3-ethyl-phenyl)-[1,3,5]triazine-2,4-diamine]: the IC50 was determined as 750 nM.

Take `COc1ccc(Cl)cc1-c1nc(N)nc(Nc2ccc(Cl)c(Cl)c2)n1` [Example 8, 6-(5-Chloro-2-methoxyphenyl)-N-(3,4-dichlorophenyl)-[1,3,5]triazine-2,4-diamine]: inhibition was half-maximal at 140 nM (IC50).

With `Cc1ccc(Cl)cc1-c1nc(N)nc(Nc2ccc3cn[nH]c3c2)n1` [Example 13, 6-(5-Chloro-2-Methyl-Phenyl)-N-(1H-Indazol-6-yl)-[1,3,5]Triazine-2,4-Diamine], the IC50 amounted to 55 nM. This IC50 is about 2.5-fold lower than that of the compound before. The compound `CCc1ccc(Nc2nc(N)nc(-c3cc(Cl)ccc3C)n2)cc1` [Example 38, 6-(5-Chloro-2-methyl-phenyl)-N-(4-ethyl-phenyl)-[1,3,5]triazine-2,4-diamine] had an IC50 of 1000 nM. Against the preceding compound, the IC50 is about 18-fold higher. `Nc1nc(Nc2ccc(Br)cc2)nc(-c2cc(Cl)ccc2Cl)n1` [Example 12, N-2-(4-Bromophenyl)-6-(2,5-dichlorophenyl)-[1,3,5]triazine-2,4-diamine] had an IC50 of 70 nM.

`Cc1ccc(Cl)cc1-c1nc(N)nc(Nc2ccc3c(c2)CCC3)n1` [Example 37, 6-(5-Chloro-2-methyl-phenyl)-N-indan-5-yl-[1,3,5]triazine-2,4-diamine] displayed a half-maximal inhibitory concentration (IC50) of 590 nM. For `COc1ccc(Cl)cc1-c1nc(N)nc(Nc2ccccc2)n1` [Example 2, 6-(5-Chloro-2-methoxyphenyl)-N-phenyl-[1,3,5]triazine-2,4-diamine], half-maximal inhibition (IC50) was put at 2300 nM. In the case of `COc1ccc(Cl)cc1-c1nc(N)nc(Nc2ccc3c(c2)OCO3)n1` [Example 5, N-Benzo[1,3]dioxol-5-yl-6-(5-chloro-2-methoxyphenyl)-[1,3,5]triazine-2,4-diamine] it was 280 nM; in that of `Cc1ccc(Cl)cc1-c1nc(N)nc(Nc2ccc(Cl)cc2)n1` [Example 9, 6-(5-Chloro-2-methylphenyl)-N-(4-Chlorophenyl)-[1,3,5]triazine-2,4-diamine], 55 nM; in that of `CCOc1ccc(Cl)cc1-c1nc(N)nc(Nc2ccc(Cl)c(C(=O)NC)c2)n1` [Example 62, 5-[4-Amino-6-(5-chloro-2-ethoxyphenyl)-[1,3,5]triazin-2-ylamino]-2-chloro-N-methylbenzamide], 1000 nM.
